Measurements taken from paper PMC11882969 (Nature Communications, 2025).
Where “and” joins values, the source holds several entries; their conditions need not be identical. Equal values may be shown once.

How the values were obtained:
CB1 (rCB1) = CB1 (rCB1) (Rattus norvegicus, UniProt P20272); assay: Radioligand competition binding, [3H]-CP-55,940, rat brain membranes
hCB1 = hCB1 (Homo sapiens, UniProt P21554); assay: bioSensAll ebBRET signaling profiling, hCB1; assay type: cell-based; set-up: host or cells: HEK293SL cells, transient PEI transfection; details: for Gi1 hCB1 response: Gi1 biosensor; for Gi1 hCB1 / GoB hCB1: single replicate values, FigS6a
hCB1, sequence (P21554 whole entry): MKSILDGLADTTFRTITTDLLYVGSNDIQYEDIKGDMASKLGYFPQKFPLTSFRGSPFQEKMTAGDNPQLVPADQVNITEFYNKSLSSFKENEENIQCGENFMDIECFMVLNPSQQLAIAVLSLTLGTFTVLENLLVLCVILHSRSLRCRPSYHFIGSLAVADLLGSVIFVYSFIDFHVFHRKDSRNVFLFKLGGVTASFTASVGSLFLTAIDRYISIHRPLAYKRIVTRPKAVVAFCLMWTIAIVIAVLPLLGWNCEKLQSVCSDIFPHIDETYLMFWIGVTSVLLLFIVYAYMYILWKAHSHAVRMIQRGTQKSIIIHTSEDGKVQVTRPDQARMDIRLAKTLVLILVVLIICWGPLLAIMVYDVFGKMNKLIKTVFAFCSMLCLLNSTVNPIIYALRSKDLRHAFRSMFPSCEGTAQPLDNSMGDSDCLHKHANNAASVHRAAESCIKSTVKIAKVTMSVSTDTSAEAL

CB1 (rCB1), sequence (P20272 whole entry): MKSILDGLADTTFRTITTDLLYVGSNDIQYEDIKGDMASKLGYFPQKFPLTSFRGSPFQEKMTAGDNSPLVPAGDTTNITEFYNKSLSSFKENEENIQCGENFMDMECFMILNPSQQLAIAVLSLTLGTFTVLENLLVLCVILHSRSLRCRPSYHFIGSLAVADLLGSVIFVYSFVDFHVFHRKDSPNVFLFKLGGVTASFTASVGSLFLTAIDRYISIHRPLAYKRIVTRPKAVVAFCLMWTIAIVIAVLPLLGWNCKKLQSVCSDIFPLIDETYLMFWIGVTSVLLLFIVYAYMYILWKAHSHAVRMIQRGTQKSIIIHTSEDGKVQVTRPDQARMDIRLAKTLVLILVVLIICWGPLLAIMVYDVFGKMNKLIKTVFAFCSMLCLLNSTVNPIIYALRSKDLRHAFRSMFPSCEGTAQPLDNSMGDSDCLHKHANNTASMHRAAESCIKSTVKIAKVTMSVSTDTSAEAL

SMILES: Cc1cc(C(=O)N(C)C(c2ccco2)c2ccco2)nn1-c1cccc(C(F)(F)F)c1 [‘4388]
- pKi [95% CI] (CB1 (rCB1); rCB1): 5.9 [5.7 – 6.0]
- Ki (CB1 (rCB1); read-out: Ki [95% CI], rCB1, [3H]-CP-55,940): 1360 nM
- Gi1 hCB1 response (hCB1; Log [Compound] (M) -4.22186): -4.018
- Gi1 hCB1 response (hCB1; Log [Compound] (M) -4.63927): -19.2595
- Gi1 hCB1 response (hCB1; Log [Compound] (M) -5.05788): -23.1763
- Gi1 hCB1 response (hCB1; Log [Compound] (M) -5.47381): 10.5525
- Gi1 hCB1 response (hCB1; Log [Compound] (M) -5.89285): -11.6498
- Gi1 hCB1 response (hCB1; Log [Compound] (M) -6.31878): -15.6337
- Gi1 hCB1 response (hCB1; Log [Compound] (M) -6.72585): 2.07
- Gi1 hCB1 response (hCB1; Log [Compound] (M) -7.14267): 5.942
- Gi1 hCB1 response (hCB1; Log [Compound] (M) -7.55284): 4.107
- Gi1 hCB1 response (hCB1; Log [Compound] (M) -8): 5.7853
- Gi1 hCB1 response (hCB1; Log [Compound] (M) -8.22186): 57.4864
- Gi1 hCB1 response (hCB1; Log [Compound] (M) -8.39794): -7.509
- Gi1 hCB1 response (hCB1; Log [Compound] (M) -8.68787): 16.0808
- Gi1 hCB1 response (hCB1; Log [Compound] (M) -9.15521): -3.346
- Gi1 hCB1 response (hCB1; Log [Compound] (M) -9.61989): -13.3061
- Gi1 hCB1 response (hCB1; Log [Compound] (M) -10.0969): -9.456
- Gi1 hCB1 response (hCB1; Log [Compound] (M) -10.5529): 6.658
- Gi1 hCB1 response (hCB1; Log [Compound] (M) -11.0177): 9.836
- Gi1 hCB1 response (hCB1; Log [Compound] (M) -11.4949): 13.8426
- Gi1 hCB1 response (hCB1; Log [Compound] (M) -11.9208): 7.912
- Gi1 hCB1 response (hCB1; Log [Compound] (M) -12.3979): 17.8713
- Gi1 hCB1 response (hCB1; Log [Compound] (M) -12.8861): 0.7271
- Gi1 hCB1 response (hCB1; Log [Compound] (M) -13, individual replicate values): -6.01 and 6.502
- Gi1 hCB1 (hCB1; Log [Compound] (M) -4.22186): -1.453
- GoB hCB1 (hCB1; Log [Compound] (M) -4.22186): -21.3927
- Gi1 hCB1 (hCB1; Log [Compound] (M) -4.63927): -2.47
- GoB hCB1 (hCB1; Log [Compound] (M) -4.63927): -23.227
- Gi1 hCB1 (hCB1; Log [Compound] (M) -5.05788): -11.3501
- GoB hCB1 (hCB1; Log [Compound] (M) -5.05788): -26.2122
- Gi1 hCB1 (hCB1; Log [Compound] (M) -5.47381): -11.1959
- GoB hCB1 (hCB1; Log [Compound] (M) -5.47381): -26.6258
- Gi1 hCB1 (hCB1; Log [Compound] (M) -5.89285): -9.5
- GoB hCB1 (hCB1; Log [Compound] (M) -5.89285): -20.8711
- Gi1 hCB1 (hCB1; Log [Compound] (M) -6.31878): -8.93
- GoB hCB1 (hCB1; Log [Compound] (M) -6.31878): -17.76
- Gi1 hCB1 (hCB1; Log [Compound] (M) -6.72585): -4.983
- GoB hCB1 (hCB1; Log [Compound] (M) -6.72585): -9.883
- Gi1 hCB1 (hCB1; Log [Compound] (M) -7.14267): 0.7674
- GoB hCB1 (hCB1; Log [Compound] (M) -7.14267): -5.046
- Gi1 hCB1 (hCB1; Log [Compound] (M) -7.55284): 2.355
- GoB hCB1 (hCB1; Log [Compound] (M) -7.55284): 0.4032
- Gi1 hCB1 (hCB1; Log [Compound] (M) -8): 1.985
- GoB hCB1 (hCB1; Log [Compound] (M) -8): -1.107
- Gi1 hCB1 (hCB1; Log [Compound] (M) -8.22186): 1.292
- GoB hCB1 (hCB1; Log [Compound] (M) -8.22186): -1.989
- Gi1 hCB1 (hCB1; Log [Compound] (M) -8.39794): 1.677
- GoB hCB1 (hCB1; Log [Compound] (M) -8.39794): 0.9427
- Gi1 hCB1 (hCB1; Log [Compound] (M) -8.68787): 1.23
- GoB hCB1 (hCB1; Log [Compound] (M) -8.68787): -0.8377
- Gi1 hCB1 (hCB1; Log [Compound] (M) -9.15521): 0.9215
- GoB hCB1 (hCB1; Log [Compound] (M) -9.15521): -0.8737
- Gi1 hCB1 (hCB1; Log [Compound] (M) -9.61989): 0.08902
- GoB hCB1 (hCB1; Log [Compound] (M) -9.61989): -0.7118
- Gi1 hCB1 (hCB1; Log [Compound] (M) -10.0969): 1.816
- GoB hCB1 (hCB1; Log [Compound] (M) -10.0969): -0.7298
- Gi1 hCB1 (hCB1; Log [Compound] (M) -10.5529): 1.122
- GoB hCB1 (hCB1; Log [Compound] (M) -10.5529): -2.258
- Gi1 hCB1 (hCB1; Log [Compound] (M) -11.0177): 1.6
- GoB hCB1 (hCB1; Log [Compound] (M) -11.0177): 0.6549
- Gi1 hCB1 (hCB1; Log [Compound] (M) -11.4949): 2.232
- GoB hCB1 (hCB1; Log [Compound] (M) -11.4949): -1.305
- Gi1 hCB1 (hCB1; Log [Compound] (M) -11.9208): 2.186
- GoB hCB1 (hCB1; Log [Compound] (M) -11.9208): -1.089
- Gi1 hCB1 (hCB1; Log [Compound] (M) -12.3979): 1.137
- GoB hCB1 (hCB1; Log [Compound] (M) -12.3979): -1.305
- Gi1 hCB1 (hCB1; Log [Compound] (M) -12.8861): 1.415
- GoB hCB1 (hCB1; Log [Compound] (M) -12.8861): -0.9816
- Gi1 hCB1 (hCB1; Log [Compound] (M) -13): 2.1086 and 2.987
- GoB hCB1 (hCB1; Log [Compound] (M) -13): 0.8707 and 0.2953
